Article PMC7557804, “The Anti-Microbial Peptide (Lin-SB056-1)2-K Reduces Pro-Inflammatory Cytokine Release through Interaction with Pseudomonas aeruginosa Lipopolysaccharide” (Antibiotics, 2020)

Assays:
P. aeruginosa = conditions: in vivo-like models of lung infection; cited from earlier work
Text: The global issue of anti-microbial resistance coupled with the lack of new treatments for bacterial infections has stimulated interest in the use of AMPs for therapeutic purposes. Due to their unique mechanism(s) of action and wide spectrum of biological activities, AMPs are emerging as a promising alternative to conventional anti-microbial agents for the management of antibiotic-resistant and biofilm-associated infections. Although mainly intended for topical use due to potential toxicity and reduced stability under physiological conditions, many different peptides with anti-micro ...

THP-1 macrophages = test: Cytotoxicity (LDH release) towards THP-1 macrophages; format: cell-based, Human; conditions: 4 h
Method: Human non-small-cell lung adenocarcinoma A549 cells (ATCC CCL-185; LGC Standards, Milan, Italy) and human monocytic THP-1 cells (ATCC TIB-202; LGC Standards) were cultured in tissue culture flasks in Dulbecco’s modified essential medium (DMEM) (Euroclone, Milan, Italy) and RPMI 1640 medium (Euroclone), respectively. Both media were supplemented with 2 mM L-glutamine (Euroclone) and 10% heat-inactivated fetal bovine serum (FBS; Euroclone). Confluent monolayers were detached from the culture flask with 0.25% trypsin/1 mM EDTA solution (Euroclone), suspended in complete culture medium and seeded into flat-bottom 96-well plates at a final density of 1 × 10^4 cells/well (A549) and 2 × 10^4 cells/well (THP-1). A549 cells were cultured for 24 h at 37 °C, 5% CO2 in order to allow adhesion and formation of semi-confluent monolayers. THP-1 cells were cultured for 3 days (37 °C, 5% CO2) in the presence of 100 nM TPA (Sigma-Aldrich, St. Louis, MO, USA) to induce their differentiation into macrophage-like cells.
The cytotoxicity of lin-SB056-1 and (lin-SB056-1)2-K towards A549 and THP-1 cells was evaluated to exclude a possible correlation between reduction in cytokine levels and decrease in cell numbers. To this end, culture supernatants of cells stimulated with LPS in the presence of the peptides were employed to quantify the amount of cytoplasmic LDH released by dead cells. Cells incubated in culture medium alone or in the presence of LPS served as an indication of spontaneous cell death (cell viability controls), while cells treated with a commercial lysis buffer (Pierce LDH cytotoxicity assay kit, Thermo Fisher Scientific) were used as cell death control (100% cell lysis). The enzymatic activity of LDH in cell supernatants was measured using the Pierce LDH cytotoxicity assay kit (Thermo Fisher Scientific) following manufacturer’s instructions. The cytotoxic effect was determined as follows: cytotoxicity (%) = [(LDH activity of A/LDH activity of B) × 100], where A represents peptide-treated or untreated cells (both in the presence and absence of LPS), and B corresponds to the cell lysis control.

In the case of “[KWKIRVRLSA]2-K [(lin-SB056-1)2-K, dendrimeric derivative of lin-SB056-1]”, the “anti-bacterial and anti-biofilm activity in in vivo-like models” value (P. aeruginosa) is listed as “remarkable anti-bacterial and anti-biofilm activity”, the “cell death (LDH release), with LPS” value (THP-1 macrophages; LPS-stimulated THP-1 macrophages, up to 19.25 μM (highest tested), 37 °C, 5% CO2, relative to cell lysis control, at least three independent experiments) is listed as “less than 5%” and the “toxicity” value (THP-1 macrophages; LPS-stimulated THP-1 macrophages, up to 19.25 μM, LDH release) is listed as “no detectable toxicity”. The “cell death (LDH release), co-cultured with peptide and LPS” value (THP-1 macrophages; THP-1 macrophages, 19.25 μM peptide with LPS, 37 °C, 5% CO2, mean of at least three independent experiments) was 5% and the “cell death (LDH release), in the absence of LPS” value (THP-1 macrophages; THP-1 macrophages, 19.25 μM peptide, no LPS, 37 °C, 5% CO2, mean of at least three independent experiments) was 14%.
